Laboratory results from patent US7718808B2, “Thiazole derivatives” (Kyowa Hakko Kirin Co., Ltd., priority 2003, dated 2010).

| melting point | Structure (SMILES) |
| --- | --- |
| 148 to 149 °C | COCC(=O)Nc1nc(-c2ccco2)c(C(=O)C2CCOCC2)s1 [Compound 530, N-[4-(2-Furyl)-5-(tetrahydropyran-4-ylcarbonyl)thiazol-2-yl]-2-methoxyacetamide] |
| 121 to 126 °C | CCOCC(=O)Nc1nc(-c2ccco2)c(C(=O)C2CCOCC2)s1 [Compound 532, 2-Ethoxy-N-[4-(2-furyl)-5-(tetrahydropyran-4-ylcarbonyl)thiazol-2-yl]acetamide] |
| 129 to 130 °C | CN(C)CC(=O)Nc1nc(-c2ccco2)c(C(=O)C2CCOCC2)s1 [Compound 533, 2-(Dimethylamino)-N-[4-(2-furyl)-5-(tetrahydropyran-4-ylcarbonyl)thiazol-2-yl]acetamide] |
| 103 to 105 °C | COCCN(C)CC(=O)Nc1nc(-c2ccco2)c(C(=O)C2CCOCC2)s1 [Compound 534, N-[4-(2-Furyl)-5-(tetrahydropyran-4-ylcarbonyl)thiazol-2-yl]-2-[N-(2-methoxyethyl)-N-methylamino]acetamide] |
| 115 to 117 °C | O=C(CN1CCCC1)Nc1nc(-c2ccco2)c(C(=O)C2CCOCC2)s1 [Compound 536, N-[4-(2-Furyl)-5-(tetrahydropyran-4-ylcarbonyl)thiazol-2-yl]-2-(1-pyrrolidinyl)acetamide] |
| 103 to 104 °C | COC[C@H]1CCCN1CC(=O)Nc1nc(-c2ccco2)c(C(=O)C2CCOCC2)s1 [Compound 537, N-[4-(2-Furyl)-5-(tetrahydropyran-4-ylcarbonyl)thiazol-2-yl]-2-[(2R)-2-(methoxymethyl)pyrrolidin-1-yl]acetamide] |
| 146 to 147 °C | O=C(CN1CCCCC1)Nc1nc(-c2ccco2)c(C(=O)C2CCOCC2)s1 [Compound 542, N-[4-(2-Furyl)-5-(tetrahydropyran-4-ylcarbonyl)thiazol-2-yl]-2-piperidinoacetamide] |
| 178 to 180 °C | O=C(CN1CCC(O)CC1)Nc1nc(-c2ccco2)c(C(=O)C2CCOCC2)s1 [Compound 543, N-[4-(2-Furyl)-5-(tetrahydropyran-4-ylcarbonyl)thiazol-2-yl]-2-(4-hydroxypiperidino)acetamide] |
| 109 to 111 °C | COC1CCN(CC(=O)Nc2nc(-c3ccco3)c(C(=O)C3CCOCC3)s2)CC1 [Compound 545, N-[4-(2-Furyl)-5-(tetrahydropyran-4-ylcarbonyl)thiazol-2-yl]-2-(4-methoxypiperidino)acetamide] |
| 151 to 153 °C | CC1(O)CCN(CC(=O)Nc2nc(-c3ccco3)c(C(=O)C3CCOCC3)s2)CC1 [Compound 546, N-[4-(2-Furyl)-5-(tetrahydropyran-4-ylcarbonyl)thiazol-2-yl]-2-(4-hydroxy-4-methylpiperidino)acetamide] |
| 183 to 184 °C | O=C(CN1CCC(N2CCCC2)CC1)Nc1nc(-c2ccco2)c(C(=O)C2CCOCC2)s1 [Compound 551, N-[4-(2-Furyl)-5-(tetrahydropyran-4-ylcarbonyl)thiazol-2-yl]-2-[4-(1-pyrrolidinyl)piperidino]acetamide] |
| 186 to 187 °C | O=C(CN1CCC2(CC1)OCCO2)Nc1nc(-c2ccco2)c(C(=O)C2CCOCC2)s1 [Compound 554, 2-(1,4-Dioxa-8-azaspiro[4.5]decan-8-yl)-N-[4-(2-furyl)-5-(tetrahydropyran-4-ylcarbonyl)thiazol-2-yl]acetamide] |
| 106 to 112 °C | CN1CCN(CC(=O)Nc2nc(-c3ccco3)c(C(=O)C3CCOCC3)s2)CC1 [Compound 562, N-[4-(2-Furyl)-5-(tetrahydropyran-4-ylcarbonyl)thiazol-2-yl]-2-(4-methylpiperazin-1-yl)acetamide] |
| 106 to 108 °C | CC(C)(O)CN1CCN(CC(=O)Nc2nc(-c3ccco3)c(C(=O)C3CCOCC3)s2)CC1 [Compound 565, N-[4-(2-Furyl)-5-(tetrahydropyran-4-ylcarbonyl)thiazol-2-yl]-2-[4-(2-hydroxy-2-methylpropyl)piperazin-1-yl]acetamide] |
| 155 to 157 °C | COC1(CN2CCN(CC(=O)Nc3nc(-c4ccco4)c(C(=O)C4CCOCC4)s3)CC2)CC1 [Compound 567, N-[4-(2-Furyl)-5-(tetrahydropyran-4-ylcarbonyl)thiazol-2-yl]-2-{4-[(1-methoxycyclopropyl)methyl]piperazin-1-yl}acetamide] |
| 94 to 96 °C | CN1CCCN(CC(=O)Nc2nc(-c3ccco3)c(C(=O)C3CCOCC3)s2)CC1 [Compound 576, N-[4-(2-Furyl)-5-(tetrahydropyran-4-ylcarbonyl)thiazol-2-yl]-2-(4-methyl-1,4-diazepan-1-yl)acetamide] |
| 168 to 170 °C | O=C(CNC12CC3CC(CC(C3)C1)C2)Nc1nc(-c2ccco2)c(C(=O)C2CCOCC2)s1 [Compound 577, N-[4-(2-Furyl)-5-(tetrahydropyran-4-ylcarbonyl)thiazol-2-yl]-2-(adamantan-1-ylamino)acetamide] |
| 176 to 178 °C | O=C(CNC12CC3CC(CC(O)(C3)C1)C2)Nc1nc(-c2ccco2)c(C(=O)C2CCOCC2)s1 [Compound 578, N-[4-(2-Furyl)-5-(tetrahydropyran-4-ylcarbonyl)thiazol-2-yl]-2-(3-hydroxyadamantan-1-ylamino)acetamide] |
| 152 to 153 °C | CCOC(=O)Nc1nc(-c2ccco2)c(C(=O)C2CCOCC2)s1 [Compound 581, Ethyl N-[4-(2-furyl)-5-(tetrahydropyran-4-ylcarbonyl)thiazol-2-yl]carbamate] |

The next lines start with the compound.

| Structure (SMILES) | melting point |
| --- | --- |
| O=C(CN1CCC(N2CCCCC2)CC1)Nc1nc(-c2ccco2)c(C(=O)C2CCOCC2)s1 [Compound 552, N-[4-(2-Furyl)-5-(tetrahydropyran-4-ylcarbonyl)thiazol-2-yl]-2-(4-piperidinopiperidino)acetamide] | 177 to 179 °C |
| O=C(CN1CCC(N2CCOCC2)CC1)Nc1nc(-c2ccco2)c(C(=O)C2CCOCC2)s1 [Compound 553, N-[4-(2-Furyl)-5-(tetrahydropyran-4-ylcarbonyl)thiazol-2-yl]-2-(4-morpholinopiperidino)acetamide] | 193 to 195 °C |
| O=C(Nc1nc(-c2ccco2)c(C(=O)C2CCSCC2)s1)c1ccncc1 [Compound 589, N-[4-(2-Furyl)-5-(tetrahydrothiopyran-4-ylcarbonyl)thiazol-2-yl]pyridine-4-carboxamide] | 203 to 210 °C |
| Cc1ccc(-c2nc(NC(=O)c3ccncc3)sc2-c2ccncc2)o1 [Compound 601, N-[4-(5-Methylfuran-2-yl)-5-(4-pyridyl)thiazol-2-yl]pyridine-4-carboxamide] | 274 to 276 °C |
| Cc1ccoc1-c1nc(NC(=O)c2ccncc2)sc1-c1ccncc1 [Compound 602, N-[4-(3-Methylfuran-2-yl)-5-(4-pyridyl)thiazol-2-yl]pyridine-4-carboxamide] | 254 to 257 °C |
| O=C(Nc1nc(-c2occc2-c2ccccc2)c(-c2ccncc2)s1)c1ccncc1 [Compound 603, N-[4-(3-Phenylfuran-2-yl)-5-(4-pyridyl)thiazol-2-yl]pyridine-4-carboxamide] | 190 to 192 °C |
| O=C(Nc1nc(-c2ccoc2)c(-c2ccncc2)s1)c1ccncc1 [Compound 605, N-[4-(3-Furyl)-5-(4-pyridyl)thiazol-2-yl]pyridine-4-carboxamide] | 251 to 254 °C |
| O=C(Nc1nc(-c2ccoc2)c(C(=O)c2ccccn2)s1)c1ccncc1 [Compound 608, N-[4-(3-Furyl)-5-(pyridin-2-ylcarbonyl)thiazol-2-yl]pyridine-4-carboxamide] | 264 to 266 °C |
| O=C(Nc1nc(-c2ccoc2)c(C(=O)C2CCOCC2)s1)C1CC1 [Compound 611, N-[4-(3-Furyl)-5-(tetrahydropyran-4-ylcarbonyl)thiazol-2-yl]cyclopropanecarboxamide] | 231 to 232 °C |
| O=C(Nc1nc(-c2ccoc2)c(C(=O)C2CCOCC2)s1)c1ccc(Cl)nc1 [Compound 612, 2-Chloro-N-[4-(3-furyl)-5-(tetrahydropyran-4-ylcarbonyl)thiazol-2-yl]pyridine-5-carboxamide] | 237 to 239 °C |
| Cc1cncc(C(=O)Nc2nc(-c3ccoc3)c(C(=O)C3CCOCC3)s2)c1 [Compound 613, N-[4-(3-Furyl)-5-(tetrahydropyran-4-ylcarbonyl)thiazol-2-yl]-5-methylpyridine-3-carboxamide] | 244 to 246 °C |
| Cc1ccc(C(=O)Nc2nc(-c3ccoc3)c(C(=O)C3CCOCC3)s2)cn1 [Compound 614, N-[4-(3-Furyl)-5-(tetrahydropyran-4-ylcarbonyl)thiazol-2-yl]-2-methylpyridine-5-carboxamide] | 217 to 219 °C |
| Cc1cc(C(=O)Nc2nc(-c3ccoc3)c(C(=O)C3CCOCC3)s2)ccn1 [Compound 615, N-[4-(3-Furyl)-5-(tetrahydropyran-4-ylcarbonyl)thiazol-2-yl]-2-methylpyridine-4-carboxamide] | 202 to 204 °C |
| O=C(Nc1nc(-c2ccoc2)c(C(=O)C2CCOCC2)s1)c1ccnc(Cl)c1 [Compound 616, 2-Chloro-N-[4-(3-furyl)-5-(tetrahydropyran-4-ylcarbonyl)thiazol-2-yl]pyridine-4-carboxamide] | 202 to 204 °C |
| O=C(Cc1cccnc1)Nc1nc(-c2ccoc2)c(C(=O)C2CCOCC2)s1 [Compound 618, N-[4-(3-Furyl)-5-(tetrahydropyran-4-ylcarbonyl)thiazol-2-yl]-2-(3-pyridyl)acetamide] | 195 to 197 °C |
| COc1cccc(C(=O)Nc2nc(-c3ccoc3)c(C(=O)C3CCOCC3)s2)c1 [Compound 619, N-[4-(3-Furyl)-5-(tetrahydropyran-4-ylcarbonyl)thiazol-2-yl]-3-methoxybenzamide] | 194 to 196 °C |
| O=C(Nc1nc(-c2ccoc2)c(C(=O)C2CCOCC2)s1)c1ccc(F)cc1 [Compound 620, 4-Fluoro-N-[4-(3-furyl)-5-(tetrahydropyran-4-ylcarbonyl)thiazol-2-yl]benzamide] | 231 to 232 °C |
| O=C(Nc1nc(-c2ccccn2)c(C(=O)c2ccccn2)s1)c1ccncc1 [Compound 631, N-[4-(2-Pyridyl)-5-(pyridin-2-ylcarbonyl)thiazol-2-yl]pyridine-4-carboxamide] | 232 to 234 °C |
